# Laboratory results from PubChem BioAssay AID328 (DTP/NCI, 2004).
# Values joined by “and” are separate entries in the source; they are usually repeats but may differ in a detail not shown here. Equal entries are not always repeated. Inconclusive results and toxic doses are left out.
# System: BDF1 mice, P388 leukemia ip, median survival T/C
# Experiment: NCI In Vivo Anticancer Drug Screen. Data for tumor model P388 Leukemia (intraperitoneal) in B6D2F1 (BDF1) mice
# Details: endpoint: median survival time, higher = longer survival
# Summary of the method: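 In tumour-bearing mice, survival after compound treatment is set against the vehicle group and given as a quotient.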
# [1] = dose: 50.0 mg/kg/injection, schedule: Q01DX009 (ip), vehicle: Klucel (hydroxypropylcellulose) (HPC)
# [2] = dose: 50.0 mg/kg/injection, schedule: Q01DX009 (ip), vehicle: saline with Tween-80
# [3] = dose: 100.0 mg/kg/injection, schedule: Q04DX003 (ip), vehicle: saline
# [4] = dose: 200.0 mg/kg/injection, schedule: Q04DX003 (ip), vehicle: saline
# [5] = dose: 400.0 mg/kg/injection, schedule: Q04DX003 (ip), vehicle: saline
# [6] = dose: 100.0 mg/kg/injection, schedule: Q01DX009 (ip), vehicle: saline with Tween-80
# [7] = dose: 100.0 mg/kg/injection, schedule: Q04DX003 (ip), vehicle: saline with Tween-80
# [8] = dose: 200.0 mg/kg/injection, schedule: Q01DX009 (ip), vehicle: saline with Tween-80
# [9] = dose: 200.0 mg/kg/injection, schedule: Q04DX003 (ip), vehicle: saline with Tween-80
# [10] = dose: 400.0 mg/kg/injection, schedule: Q01DX009 (ip), vehicle: saline with Tween-80
# [11] = dose: 400.0 mg/kg/injection, schedule: Q04DX003 (ip), vehicle: saline with Tween-80
structure (smiles),measurement,setting,value
O=C(O)c1cc(C(Cl)(Cl)Cl)ccc1C(Cl)(Cl)Cl,T/C,"dose: 100.0 mg/kg/injection, schedule: Q04DX003 (ip), vehicle: saline sonified",95 % of control
same,T/C,"dose: 400.0 mg/kg/injection, schedule: Q04DX003 (ip), vehicle: saline sonified",104 % of control
NC1CCC(CCCC2CCCC2)CC1 (stereo unspecified),T/C,"dose: 25.0 mg/kg/injection, schedule: Q01DX009 (ip), vehicle: Klucel (hydroxypropylcellulose) (HPC)",101 % of control
same,T/C,[1],110 % of control
O=C1c2ccccc2C(=O)N1/N=C/C=C/c1ccccc1,T/C,"dose: 87.5 mg/kg/injection, schedule: Q01DX009 (ip), vehicle: saline with Tween-80",106 % of control
same,T/C,"dose: 175.0 mg/kg/injection, schedule: Q01DX009 (ip), vehicle: saline with Tween-80",95 % of control
same,T/C,"dose: 350.0 mg/kg/injection, schedule: Q01DX009 (ip), vehicle: saline with Tween-80",87 % of control
CC(c1ccccc1)N1CCS(=O)(=O)CC1 (stereo unspecified),T/C,[1],93 % of control
same,T/C,"dose: 100.0 mg/kg/injection, schedule: Q01DX009 (ip), vehicle: Klucel (hydroxypropylcellulose) (HPC)",106 % of control
same,T/C,"dose: 200.0 mg/kg/injection, schedule: Q01DX009 (ip), vehicle: Klucel (hydroxypropylcellulose) (HPC)",90 % of control
CCCCN(C)N=Nc1c(C(N)=O)n[nH]c1C,T/C,"dose: 22.0 mg/kg/injection, schedule: Q01DX009 (ip), vehicle: saline with Tween-80",122 % of control
same,T/C,"dose: 25.0 mg/kg/injection, schedule: Q01DX009 (ip), vehicle: saline with Tween-80",120 % of control
same,T/C,[2],154 % of control
same,T/C,"dose: 88.0 mg/kg/injection, schedule: Q04DX003 (ip), vehicle: Klucel (hydroxypropylcellulose) (HPC)",109 % of control
Cc1ccc([N+](=O)[O-])cc1NC(=O)Oc1ccccc1,T/C,"dose: 100.0 mg/kg/injection, schedule: Q04DX003 (ip), vehicle: other",92 % of control
same,T/C,"dose: 200.0 mg/kg/injection, schedule: Q04DX003 (ip), vehicle: other",96 % of control
same,T/C,"dose: 400.0 mg/kg/injection, schedule: Q04DX003 (ip), vehicle: other",96 % of control
COc1c2c([n+](C)c3c(OC)cccc13)OC(C(C)C)C2 (stereo unspecified),T/C,"dose: 0.03 mg/kg/injection, schedule: Q01DX009 (ip), vehicle: saline",109 % of control
same,T/C,"dose: 0.06 mg/kg/injection, schedule: Q01DX009 (ip), vehicle: saline",104 % of control
same,T/C,"dose: 0.12 mg/kg/injection, schedule: Q01DX009 (ip), vehicle: saline",109 % of control
same,T/C,"dose: 0.18 mg/kg/injection, schedule: Q04DX003 (ip), vehicle: saline",100 % of control
same,T/C,"dose: 0.25 mg/kg/injection, schedule: Q01DX009 (ip), vehicle: Klucel (hydroxypropylcellulose) (HPC)",104 % of control
same,T/C,"dose: 0.25 mg/kg/injection, schedule: Q01DX009 (ip), vehicle: saline",104 % of control and 120 % of control
same,T/C,"dose: 0.37 mg/kg/injection, schedule: Q04DX003 (ip), vehicle: saline",118 % of control
same,T/C,"dose: 0.5 mg/kg/injection, schedule: Q01DX009 (ip), vehicle: Klucel (hydroxypropylcellulose) (HPC)",104 % of control
same,T/C,"dose: 0.5 mg/kg/injection, schedule: Q01DX009 (ip), vehicle: saline",112 % of control
same,T/C,"dose: 0.75 mg/kg/injection, schedule: Q04DX003 (ip), vehicle: saline",104 % of control
same,T/C,"dose: 1.0 mg/kg/injection, schedule: Q01DX009 (ip), vehicle: Klucel (hydroxypropylcellulose) (HPC)",118 % of control
same,T/C,"dose: 1.1 mg/kg/injection, schedule: Q04DX003 (ip), vehicle: saline",90 % of control
same,T/C,"dose: 1.7 mg/kg/injection, schedule: Q04DX003 (ip), vehicle: saline",100 % of control
same,T/C,"dose: 2.5 mg/kg/injection, schedule: Q04DX003 (ip), vehicle: saline",90 % of control
same,T/C,"dose: 3.6 mg/kg/injection, schedule: Q04DX003 (ip), vehicle: saline",86 % of control
O=C(NP(=O)(N1CC1)N1CC1)c1cc(I)ccc1I,T/C,"dose: 1.0 mg/kg/injection, schedule: Q01DX001 (oral), vehicle: saline",102 % of control
same,T/C,"dose: 1.0 mg/kg/injection, schedule: Q01DX009 (ip), vehicle: saline with Tween-80",110 % of control
same,T/C,"dose: 1.0 mg/kg/injection, schedule: Q01DX009 (ip), vehicle: saline",104 % of control and 202 % of control
same,T/C,"dose: 2.0 mg/kg/injection, schedule: Q01DX001 (oral), vehicle: saline",100 % of control
same,T/C,"dose: 2.0 mg/kg/injection, schedule: Q01DX009 (ip), vehicle: saline with Tween-80",101 % of control
same,T/C,"dose: 4.0 mg/kg/injection, schedule: Q01DX001 (oral), vehicle: saline",101 % of control
same,T/C,"dose: 4.0 mg/kg/injection, schedule: Q01DX009 (ip), vehicle: saline with Tween-80",105 % of control
same,T/C,"dose: 4.0 mg/kg/injection, schedule: Q01DX009 (ip), vehicle: saline",96 % of control and 222 % of control
same,T/C,"dose: 8.0 mg/kg/injection, schedule: Q01DX001 (oral), vehicle: saline",113 % of control
same,T/C,"dose: 8.0 mg/kg/injection, schedule: Q01DX009 (ip), vehicle: saline",232 % of control and 150 % of control
same,T/C,"dose: 16.0 mg/kg/injection, schedule: Q01DX001 (oral), vehicle: saline",113 % of control
same,T/C,"dose: 16.0 mg/kg/injection, schedule: Q01DX009 (ip), vehicle: saline with Tween-80",214 % of control
same,T/C,"dose: 16.0 mg/kg/injection, schedule: Q01DX009 (ip), vehicle: saline",177 % of control and 191 % of control
same,T/C,"dose: 32.0 mg/kg/injection, schedule: Q01DX009 (ip), vehicle: saline with Tween-80",177 % of control
same,T/C,"dose: 32.0 mg/kg/injection, schedule: Q01DX009 (ip), vehicle: saline",93 % of control and 207 % of control
same,T/C,"dose: 64.0 mg/kg/injection, schedule: Q01DX001 (oral), vehicle: saline",150 % of control
same,T/C,"dose: 64.0 mg/kg/injection, schedule: Q01DX009 (ip), vehicle: saline with Tween-80",112 % of control
same,T/C,"dose: 128.0 mg/kg/injection, schedule: Q01DX009 (ip), vehicle: saline",123 % of control
same,T/C,"dose: 256.0 mg/kg/injection, schedule: Q01DX001 (oral), vehicle: saline",161 % of control
O=C1C=C(C2CCCCC2)C(=O)C2CCCCC12 (stereo unspecified),T/C,[3],110 % of control
same,T/C,[4],105 % of control
same,T/C,[5],120 % of control
COc1ccc2c(c1)C(=O)CC=C(C(=O)O)N2,T/C,[6],112 % of control
same,T/C,[7],100 % of control
same,T/C,[8],112 % of control
same,T/C,[9],115 % of control
same,T/C,[10],116 % of control
same,T/C,[11],115 % of control
Cc1cc(=O)[nH]o1,T/C,[2],108 % of control
same,T/C,[6],103 % of control
same,T/C,[8],103 % of control
same,T/C,[10],113 % of control
O=C1c2ccccc2CCCC1N1CCOCC1 (stereo unspecified),T/C,[7],100 % of control
same,T/C,[9],90 % of control
same,T/C,[11],90 % of control
C/C=C(/C)C(=O)O[C@H]1CC[N+]2([O-])CC=C(COC(=O)[C@@](O)([C@H](C)OC)C(C)(C)O)[C@H]12 (stereo partly specified),T/C,"dose: 40.0 mg/kg/injection, schedule: Q01DX010 (ip), vehicle: saline",105 % of control
same,T/C,"dose: 50.0 mg/kg/injection, schedule: Q01DX010 (ip), vehicle: saline",86 % of control
same,T/C,"dose: 80.0 mg/kg/injection, schedule: Q01DX010 (ip), vehicle: saline",111 % of control
CCCCCCCCCCCCCCSC(CC(=O)O)C(=O)O (stereo unspecified),T/C,"dose: 15.0 mg/kg/injection, schedule: Q01DX009 (ip), vehicle: saline with Tween-80",87 % of control
same,T/C,"dose: 30.0 mg/kg/injection, schedule: Q01DX009 (ip), vehicle: saline with Tween-80",98 % of control
same,T/C,"dose: 60.0 mg/kg/injection, schedule: Q01DX009 (ip), vehicle: saline with Tween-80",94 % of control
O=C1CC=C(Nc2ccc(Br)cc2)C(=O)O1,T/C,"dose: 25.0 mg/kg/injection, schedule: Q01DX009 (ip), vehicle: saline",99 % of control
same,T/C,"dose: 50.0 mg/kg/injection, schedule: Q01DX009 (ip), vehicle: saline",101 % of control
same,T/C,"dose: 100.0 mg/kg/injection, schedule: Q01DX009 (ip), vehicle: saline",105 % of control
same,T/C,[3],112 % of control
same,T/C,"dose: 200.0 mg/kg/injection, schedule: Q01DX009 (ip), vehicle: saline",92 % of control
same,T/C,[4],91 % of control
same,T/C,"dose: 400.0 mg/kg/injection, schedule: Q01DX009 (ip), vehicle: saline",99 % of control
same,T/C,[5],107 % of control
CCCCCCCCCCCCCCCC(=O)N1CCC(N2CCCCC2)CC1,T/C,"dose: 200.0 mg/kg/injection, schedule: Q01DX001 (ip), vehicle: Klucel (hydroxypropylcellulose) (HPC)",109 % of control
same,T/C,"dose: 400.0 mg/kg/injection, schedule: Q01DX001 (ip), vehicle: Klucel (hydroxypropylcellulose) (HPC)",90 % of control
O=C1c2ccccc2C2CCCC12 (stereo unspecified),T/C,[2],105 % of control
same,T/C,[6],120 % of control
same,T/C,[8],112 % of control
